Test results from US7173025B1, “Aminoheterocyclic derivatives as antithrombotic or anticoagulant agents” (Zeneca Limited, priority 1996, dated 2007).
Where a name gives a salt, the structure may show the parent alone.

system: not given; assay: not given; conditions: not given

| SMILES | melting point [°C] |
| --- | --- |
| O=S(=O)(Nc1ccccc1OCC1CCN(c2ccncc2)CC1)c1ccc2cc(Br)ccc2c1 [Example 20, 6-bromo-N-{2-[1-(4-pyridyl)piperidin-4-ylmethoxy]phenyl}-2-naphthalenesulphonamide] | 197 to 200 |
| O=S(=O)(/C=C/c1ccc(Cl)cc1)Nc1cccc(OC2CCN(c3ccncc3)CC2)c1 (as salt: hydrochloride) [Example 21, 4-chloro-N -{3-[1-(4-pyridyl)piperidin-4-yloxy]phenyl}-(E)-styrylsulphonamide] | 147 to 150 |
| O=C(c1ccc(Sc2ccc3cc(Br)ccc3c2)cc1)N1CCN(c2ccncc2)CC1 [Example 27, 1-[4-(6-bromonaphth-2-ylthio)benzoyl]-4-(4-pyridyl)piperazine] | 210 to 213 |
| O=S(=O)(c1ccc(S(=O)(=O)N2CCN(c3ccncc3)CC2)cc1)c1ccc2cc(Br)ccc2c1 (as salt: trifluoroacetate) [Example 25, 4-[4-(6-bromonaphth-2-ylsulphonyl)phenylsulphonyl]-1-(4-pyridyl)piperazine] | 236 to 238 |
| O=S(=O)(/C=C/c1ccc(Cl)cc1)Nc1ccc(OCC2CCN(c3ccncc3)CC2)cc1 (as salt: hydrochloride) [Example 13, 4-chloro-N-{4-[1-(4-pyridyl)piperidin-4-ylmethoxy]phenyl}-(E)-styrylsulphonamide] | 220 to 223 |
| O=S(=O)(c1ccc2cc(Br)ccc2c1)N(c1ccc(OCC2CCN(c3ccncc3)CC2)cc1)S(=O)(=O)c1ccc2cc(Br)ccc2c1 [Example 15, 6-bromo-N-(6-bromonaphth-2-ylsulphonyl)-N-{4-[1-(4-pyridyl)piperidin-4-ylmethoxy]phenyl}-2-naphthalenesulphonamide] | 246 to 252 |
| O=C(c1ccc(S(=O)(=O)c2ccc3cc(Cl)ccc3c2)cc1)N1CCN(c2ccncc2)CC1 [Example 1, 1-[4-(6-chloronaphth-2-ylsulphonyl)benzoyl]-4-(4-pyridyl)piperazine] | 267 to 269 |
| O=S(=O)(c1ccc(-c2ccc(Br)cc2)cc1)N(c1ccc(OCC2CCN(c3ccncc3)CC2)cc1)S(=O)(=O)c1ccc(-c2ccc(Br)cc2)cc1 [Example 14, 4′-bromo-N-(4′-bromo-4-biphenylylsulphonyl)-N-{4-[1-(4-pyridyl)piperidin-4-ylmethoxy]phenyl}-4-biphenylylsulphonamide] | 136 to 140 |

Other lines, results leading:

| melting point [°C] | SMILES |
| --- | --- |
| 298 to 300 | O=S(=O)(Nc1cccc(OC2CCN(c3ccncc3)CC2)c1)c1ccc2cc(Br)ccc2c1 (as salt: hydrochloride) [Example 16, 6-bromo-N-{3-[1-(4-pyridyl)piperidin-4-yloxy]phenyl}-2-naphthalenesulphonamide] |
| 302 to 304 | O=S(=O)(Nc1ccc(OC2CCN(c3ccncc3)CC2)cc1)c1ccc(-c2ccc(Br)cc2)cc1 (as salt: hydrochloride) [Example 4, 4′-bromo-N-{4-[1-(4-pyridyl)piperidin-4-yloxy]phenyl}-4-biphenylylsulphonamide] |
| 167 to 169 | O=S(=O)(Nc1ccc(OCC2CCN(c3ccncc3)CC2)cc1)c1ccc2cc(Br)ccc2c1 (as salt: hydrochloride) [Example 12, 6-bromo-N-{4-[1-(4-pyridyl)piperidin-4-ylmethoxy]-phenyl}-2-naphthalenesulphonamide] |
| 293 to 295 | O=S(=O)(Nc1ccc(OCC2CCN(c3ccncc3)CC2)cc1)c1ccc(-c2ccc(Br)cc2)cc1 (as salt: hydrochloride) [Example 11, 4′-bromo-N-{4-[1-(4-pyridyl)piperidin-4-ylmethoxy]phenyl}-4-biphenylylsulphonamide] |
| 180 to 183 | O=S(=O)(c1ccc(OC2CCN(c3ccncc3)CC2)cc1)c1ccc2cc(Br)ccc2c1 [Example 22, 4-[4-(6-bromonaphth-2-ylsulphonyl)phenoxy]-1-(4-pyridyl)piperidine] |
| 196 to 198 | Cc1ccc(S(=O)(=O)N(c2ccc(OC3CCN(c4ccncc4)CC3)cc2)S(=O)(=O)c2ccc(C)cc2)cc1 [Example 8, N-{4-[1-(4-pyridyl)piperidin-4-yloxy]phenyl}-N-(4-tolylsulphonyl)-4-toluenesulphonamide] |
| 270 to 272 | Cc1ccc(S(=O)(=O)Nc2ccc(OC3CCN(c4ccncc4)CC3)cc2)cc1 (as salt: hydrochloride) [Example 7, N-{4-[1-(4-pyridyl)piperidin-4-yloxy]phenyl}-4-toluenesulphonamide] |

system: blood plasma; assay: Measurement of Anticoagulant Activity (in vitro prothrombin time test); set-up: species or system human, rat or rabbit; conditions: test c)
Description: c) Measurement of Anticoagulant Activity
An in vitro assay whereby human, rat or rabbit venous blood was collected and added directly to a sodium citrate solution (3.2 g/100 ml, 9 parts blood to 1 part citrate solution). Blood plasma was prepared by centrifugation (1000 g, 15 minutes) and stored at 2-4° C. Conventional prothrombin time (PT) tests were carried out in the presence of various concentrations of a test compound and the concentration of test compound required to double the clotting time, hereinafter referred to as CT2, was determined. In the PT test, the test compound and blood plasma were incubated at 37° C. for 10 minutes. Tissue thromboplastin with calcium (Sigma Limited, Poole, England) was added and fibrin formation and the time required for a clot to form were determined.

| SMILES | CT2 (PT), concentration of test compound required to double the clotting time [µM] |
| --- | --- |
| O=C(c1ccc(S(=O)(=O)c2ccc3cc(Cl)ccc3c2)cc1)N1CCN(c2ccncc2)CC1 [Example 1, 1-[4-(6-chloronaphth-2-ylsulphonyl)benzoyl]-4-(4-pyridyl)piperazine] | 5 |

target: human thrombin (Homo sapiens, UniProt P00734); assay: Measurement of Thrombin Inhibition (chromogenic substrate S-2238); assay type: biochemical; conditions: test b); read-out: IC50 against thrombin
Description: b) Measurement of Thrombin Inhibition
The procedure of method a) was repeated except that human thrombin (0.005 Units/ml) and the chromogenic substrate S-2238 (KabiVitum AB, 7 μM) were employed.

| IC50 [nM] | SMILES |
| --- | --- |
| > 40000 | O=C(c1ccc(S(=O)(=O)c2ccc3cc(Cl)ccc3c2)cc1)N1CCN(c2ccncc2)CC1 [Example 1, 1-[4-(6-chloronaphth-2-ylsulphonyl)benzoyl]-4-(4-pyridyl)piperazine] |

target: human Factor Xa (Homo sapiens, UniProt P00742); assay: Measurement of Factor Xa Inhibition (chromogenic substrate S-2765); assay type: biochemical; conditions: test a); read-out: IC50 against Factor Xa
Description: a) Measurement of Factor Xa Inhibition
An in vitro assay system was carried out based on the method of Kettner et al., J. Biol. Chem., 1990, 265, 18289-18297, whereby various concentrations of a test compound were dissolved in DMSO and diluted in a pH7.5 buffer containing 0.5% of a polyethylene glycol (PEG 6000) and incubated at 37° C. with human Factor Xa (0.001 Units/ml, 0.3 ml) for 15 minutes. The chromogenic substrate S-2765 (KabiVitum AB, 20 μM) was added and the mixture was incubated at 37° C. for 20 minutes whilst the absorbance at 405 nm was measured. The maximum reaction velocity (Vmax) was determined and compared with that of a control sample containing no test compound. Inhibitor potency was expressed as an IC50 value.

Sequence of human Factor Xa (P00742 235-488 limits assumed): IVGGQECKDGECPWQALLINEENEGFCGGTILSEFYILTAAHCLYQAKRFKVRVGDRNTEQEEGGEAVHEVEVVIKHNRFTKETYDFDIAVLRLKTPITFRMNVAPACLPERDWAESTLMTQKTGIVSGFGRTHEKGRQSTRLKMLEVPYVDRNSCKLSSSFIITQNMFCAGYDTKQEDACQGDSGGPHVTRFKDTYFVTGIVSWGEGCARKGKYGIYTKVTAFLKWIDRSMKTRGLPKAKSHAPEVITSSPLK
Sequence of human Factor Xa (P00742 41-179 partner limits assumed): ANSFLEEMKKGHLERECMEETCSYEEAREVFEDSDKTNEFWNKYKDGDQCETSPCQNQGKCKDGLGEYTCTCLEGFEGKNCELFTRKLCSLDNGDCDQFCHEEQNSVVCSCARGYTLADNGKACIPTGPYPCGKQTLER

| IC50 [nM] | SMILES |
| --- | --- |
| 13 | O=C(c1ccc(S(=O)(=O)c2ccc3cc(Cl)ccc3c2)cc1)N1CCN(c2ccncc2)CC1 [Example 1, 1-[4-(6-chloronaphth-2-ylsulphonyl)benzoyl]-4-(4-pyridyl)piperazine] |
